Results reported in paper PMC4368888, “Preclinical to Clinical Translation of CNS Transporter Occupancy of TD-9855, a Novel Norepinephrine and Serotonin Reuptake Inhibitor” (International Journal of Neuropsychopharmacology, 2015).

Experiments:
[1] = biological target: T1, NET (Rattus norvegicus, UniProt Q63380); experiment: Ex vivo NET occupancy in rat spinal cord with PK/PD modeling; details: estimate (% CV)
T1 construct: from tissue; host or cells: rat lumbar spinal cord after oral dosing
Experimental: (§1) TD-9855 Rat Administration and Sampling — Rats (n = 6/timepoint/dose level) received a single oral dose of TD-9855 (0.3, 1, 5, 10, 30, and 60mg/kg) and were euthanized by decapitation at specified time points (0.5, 2, 4, 6, and 8hr for 5mg/kg dose level; 2hr for 0.3, 1, 10, 30, and 60mg/kg dose levels) post-administration. Spinal cords were dissected for ex vivo transporter occupancy and PK assessments from the same animals. The spinal cord was harvested by hydraulic extrusion using phosphate-buffered saline, and the lumbar segment dissected and frozen on dry ice. The remaining spinal cord segments were collected and homogenized in water (25% w/w) for PK analysis. All samples were stored at -80 °C until analysis.
A kinetic radioligand binding assay was used to determine NET and SERT occupancy in rat spinal cord, as described previously ([Bourdet et al., 2012]).
(§2) Rat PK/PD Modeling — PK/PD parameters were estimated by a compartmental modeling approach (WinNonlin Version 5.0.1, Pharsight Corporation). One- and two-compartment PK models with first-order absorption and elimination were evaluated. The one-compartment model was selected. The pharmacodynamic model was an effect compartment Emax model linked directly to the central PK compartment (WinNonlin PK Model 3, PD Model 101). Selection of models was based upon best fit in terms of visual inspection, Akaike Information Criteria, and weighted residual sum of squares using the Gauss-Newton minimization method. The following parameters were estimated:
Emax (% occupancy): Maximal SERT or NET occupancy in spinal cord
keo (hr^-1): First-order equilibration rate constant between the central pharmacokinetic compartment and the pharmacodynamic effect compartment

[2] = biological target: T2, rat native SERT (Rattus norvegicus, UniProt P31652); experiment: [3H]-citalopram binding, rat cortical membranes; details: mean (95% CI), 3 to 9 experiments, read-out: Transporter Binding: pKi SERT (converted)
T2 construct: at human recombinant and rat native monoamine transporters; from tissue
Excerpt: (§3) The in vitro pharmacology of TD-9855 (4-[2-(2, 4, 6-trifluorophenoxymethyl)phenyl]piperidine; Figure 1) at human recombinant and rat native monoamine transporters was characterized as described previously ([Tsuruda et al., 2010]; [Shen et al., 2013]). Radioligands were sourced commercially (Perkin Elmer Life Sciences or GE Healthcare Life Sciences). Briefly, membranes prepared from HEK293 (Human Embryonic Kidney 293) cells stably-transfected with human recombinant SERT (HEK293-hSERT), NET (HEK293-hNET), or DAT ([…]) were incubated for 1hr at 22°C in the absence, or presence, of TD-9855 and [^3H]-citalopram (1.0nM) for SERT, [^3H]-nisoxetine (2.0nM) for NET, and [^3H]-WIN35428 (3.0nM) for DAT in 50mM Tris-HCl, 120mM NaCl, 5mM KCl, 0.025% BSA, 100 μM ascorbic acid, pH 7.4. Rat cortical membrane preparations were incubated with [^3H]-citalopram (2.0nM) for SERT or [^3H]-nisoxetine (4.0nM) for NET for 1hr at 22°C. […] Binding and uptake assays were terminated by rapid filtration and radioactivity, determined by liquid scintillation spectroscopy.

[3] = in vivo; details: Sprague Dawley, rat, po
Experimental: as §1, §2
k01 (hr^-1): First-order absorption rate constant.
V/F (L/kg): Volume of the central compartment divided by oral bioavailability
k10 (hr^-1): Elimination rate constant from the central compartment

[4] = biological target: rat native NET (Rattus norvegicus, UniProt Q63380); experiment: [3H]-nisoxetine binding, rat cortical membranes; parameters: at human recombinant and rat native monoamine transporters; from tissue; details: mean (95% CI), 3 to 9 experiments, read-out: Transporter Binding: pKi NET (converted)
Excerpt: as §3

[5] = human, data on file, cited from earlier work
[6] = biological target: NET (Homo sapiens, UniProt P23975); experiment: [3H]-NE uptake inhibition in HEK293-hNET cells; type: cell-based; parameters: expressed in transfected cells; host or cells: HEK293 (HEK293-hNET), stably transfected
Excerpt: as §3

T1 sequence (Q63380 1-617): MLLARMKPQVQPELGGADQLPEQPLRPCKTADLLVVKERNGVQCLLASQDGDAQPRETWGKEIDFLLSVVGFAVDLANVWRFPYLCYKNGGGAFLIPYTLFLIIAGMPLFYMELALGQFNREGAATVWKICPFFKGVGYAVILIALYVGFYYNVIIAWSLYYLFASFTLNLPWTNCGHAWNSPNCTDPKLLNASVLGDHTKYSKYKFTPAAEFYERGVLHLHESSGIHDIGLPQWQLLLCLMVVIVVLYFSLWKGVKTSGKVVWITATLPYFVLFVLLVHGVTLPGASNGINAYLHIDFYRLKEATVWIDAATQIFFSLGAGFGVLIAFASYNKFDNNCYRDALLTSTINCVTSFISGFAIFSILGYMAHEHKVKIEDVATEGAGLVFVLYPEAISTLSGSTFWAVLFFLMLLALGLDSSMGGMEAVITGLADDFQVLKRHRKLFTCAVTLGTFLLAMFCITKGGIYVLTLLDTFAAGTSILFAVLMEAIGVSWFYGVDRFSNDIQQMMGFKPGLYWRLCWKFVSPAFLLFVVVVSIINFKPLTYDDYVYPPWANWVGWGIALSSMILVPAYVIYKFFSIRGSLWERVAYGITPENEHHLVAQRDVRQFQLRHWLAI
Sequence of NET (Homo sapiens, UniProt P23975) (P23975 whole entry): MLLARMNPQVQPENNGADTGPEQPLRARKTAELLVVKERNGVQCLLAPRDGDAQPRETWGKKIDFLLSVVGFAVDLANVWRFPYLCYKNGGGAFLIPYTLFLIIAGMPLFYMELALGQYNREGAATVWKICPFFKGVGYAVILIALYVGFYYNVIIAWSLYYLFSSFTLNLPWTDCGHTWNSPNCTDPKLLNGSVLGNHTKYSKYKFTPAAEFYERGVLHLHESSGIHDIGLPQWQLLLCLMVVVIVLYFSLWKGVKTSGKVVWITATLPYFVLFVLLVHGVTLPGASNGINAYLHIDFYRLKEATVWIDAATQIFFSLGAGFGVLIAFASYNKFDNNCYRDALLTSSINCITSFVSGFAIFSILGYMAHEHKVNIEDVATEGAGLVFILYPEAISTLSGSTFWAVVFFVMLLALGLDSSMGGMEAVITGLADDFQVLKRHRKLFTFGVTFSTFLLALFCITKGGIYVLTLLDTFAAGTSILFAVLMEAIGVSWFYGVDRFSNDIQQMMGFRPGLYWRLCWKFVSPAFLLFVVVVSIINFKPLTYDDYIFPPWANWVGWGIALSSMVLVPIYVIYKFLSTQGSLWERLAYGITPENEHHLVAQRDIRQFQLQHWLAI
Sequence of rat native NET (Q63380 1-617): as the sequence (Q63380 1-617) above
T2 sequence (P31652 whole entry): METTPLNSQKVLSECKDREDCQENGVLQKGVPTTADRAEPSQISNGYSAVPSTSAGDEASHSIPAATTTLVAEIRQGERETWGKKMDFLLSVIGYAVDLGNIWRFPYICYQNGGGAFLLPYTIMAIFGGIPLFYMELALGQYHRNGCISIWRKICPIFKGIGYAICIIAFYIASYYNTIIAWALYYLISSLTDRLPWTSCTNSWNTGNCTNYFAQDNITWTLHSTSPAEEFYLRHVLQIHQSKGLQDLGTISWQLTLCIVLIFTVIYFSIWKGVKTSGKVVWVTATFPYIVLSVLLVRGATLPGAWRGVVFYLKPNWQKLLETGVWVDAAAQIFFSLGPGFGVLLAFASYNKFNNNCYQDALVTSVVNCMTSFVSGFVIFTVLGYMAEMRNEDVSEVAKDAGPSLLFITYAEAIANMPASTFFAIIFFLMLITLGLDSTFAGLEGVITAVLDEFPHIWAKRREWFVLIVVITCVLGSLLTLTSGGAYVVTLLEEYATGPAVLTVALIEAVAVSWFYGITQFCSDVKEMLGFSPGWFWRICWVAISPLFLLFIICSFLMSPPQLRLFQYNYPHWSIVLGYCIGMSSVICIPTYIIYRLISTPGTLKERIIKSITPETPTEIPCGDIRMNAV

## Fc1cc(F)c(OCc2ccccc2C2CCNCC2)c(F)c1 [TD-9855, 4-[2-(2,4,6-trifluorophenoxymethyl)phenyl]piperidine]
[1]; rat spinal cord, oral 0.3-60mg/kg
  Emax (% Occupancy), NET: 92.0 (19) % Occupancy
[1]; rat spinal cord, plasma EC50
  EC50: 36.4 nM
[1]; rat, equilibration rate constant plasma to effect compartment
  keo, NET: 1.78 (57) hr^-1
[2]
  Ki: 3.16 nM
[3]
  K01, first-order absorption rate constant: 0.777 (108) hr^-1
  V/F: 54.8 (66) L/kg
  k el: 8.86e-05 s⁻¹
[4]
  Ki: 2 nM
[5]; ascending single dose studies, ref Theravance Biopharma US, Inc.
  Tmax: 6 to 12 h
[5]; ref Theravance Biopharma US, Inc.
  pharmacokinetic (plasma) half-life: 30 to 40 h
[5]; ref Theravance
  accumulation in plasma after repeated administration: 3- to 4 fold
[6]; human transporters, neurotransmitter uptake
  selectivity for inhibition of NET over SERT: 4 fold
[6]; uptake in vitro, human and rat transporters
  inhibitory selectivity for NE: 4- to 10 fold
